Patent US7138403B2, “2,4,5-trisubstituted thiazolyl derivatives and their antiinflammatory activity” (Janssen Pharmaceutica N.V., priority 2001, dated 2006)

The molecules below were run on IL-12p40 production (assay: In vitro inhibition of IL-12p40 production in human blood (LPS-stimulated whole blood, ELISA)). Settings: test dose 1 × 10^−6 M, LPS 100 ng/ml, 24 hours, read-out: % inhib. IL-12 (p40).
Format: cell-based
Procedure: In Vitro Inhibition of IL-12p40 Production in Human Blood
Human Whole Blood Stimulation
Peripheral blood from healthy male donors was drawn into heparinized syringes (12.5 U heparin/ml). Blood samples were three-fold diluted in RMPI 1640 medium (Life Technologies, Belgium) supplemented with 2 mM L-glutamine, 100 U/ml penicillin and 100 μg/ml streptomycin, and 300 μl fractions were distributed in 24-well multidisc plates (Nunc, Roskilde, Denmark). Blood samples were preincubated (60 minutes at 37° C.) in a humidified 6% CO2-atmosphere with 100 µl of drug solvent (final concentration 0.02% dimethylsulfoxide in RPMI 1640) or with 100 μl of an appropriate dose of test compound before being stimulated by the addition of 100 μl of lipopolysaccharide at a final concentration of 100 ng/ml. After 24 hours, cell-free supernatant fluids were collected by centrifugation and stored at −20° C. until tested for the presence of IL-12 p40.
Cytokine protein concentrations were determined by sandwich ELISA as described in Van Wauwe et al. (1996, Inflamm Res, 45, 357–363). Murine monoclonals used as capture antibodies to human cytokines were obtained from R&D Systems (Abingdon, United Kingdom) and code named MAB210 and MAB611 for TNF-α and IL-12 p40 respectively. Biotinylated goat polyclonal antibodies used to detect human cytokines were from R&D Systems (BAF210, BAF219). Cytokine levels were calculated from standard curves using recombinant cytokines supplied by R&D Systems.

| SMILES | inhibition at 1 µM [%] |
| --- | --- |
| Cc1nc(-c2ccc(C(F)(F)F)cc2)sc1-c1ccnc(N)n1 [Compound 9] | 57 |
| Cc1nc(-c2ccc(C(F)(F)F)cc2)sc1-c1ccnc(NCCCN)n1 [Compound 38] | 93 |
| Cc1nc(-c2ccc(C(F)(F)F)cc2)sc1-c1ccnc(C#N)n1 [Compound 40] | 93 |
| Cc1nc(-c2ccc(C(F)(F)F)cc2)sc1-c1nc(N)ncc1F [Compound 49] | 92 |
| Cc1nc(-c2ccc(C(F)(F)F)cc2)sc1-c1cc(O)nc(N)n1 [Compound 80] | 49 |
| COc1nccc(-c2sc(-c3ccc(C(F)(F)F)cc3)nc2C)n1 [Compound 83] | 59 |
| Cc1nc(-c2ccc(C(F)(F)F)cc2)sc1-c1ccnc(NCC(=O)O)n1 [Compound 90] | 56 |

The molecules below were run on IL-12p70 production (assay: In vitro inhibition of IL-12p70 production in human blood (LPS-stimulated whole blood, ELISA)). Settings: test dose 1 × 10^−8 M, LPS 100 ng/ml, 24 hours, read-out: % inhib. IL-12 (p70).
Format: cell-based
Procedure: In Vitro Inhibition of IL-12p70 Production in Human Blood Human Whole Blood Stimulation Peripheral blood from healthy donors was drawn into heparinized syringes (12.5 U heparin/ml). Blood samples were three-fold diluted in RMPI 1640 medium (Life Technologies, Belgium) supplemented with 2 mM L-glutamine, 100 U/ml penicillin and 100 μg/ml streptomycin, and 200 μl fractions were distributed in 96-well plates (Nunc, Roskilde, Denmark). Blood samples were preincubated (5 minutes at 37° C.) in a humidified 5% CO2-atmosphere with 25 μl of drug solvent (final concentration 0.1% dimethylsulfoxide in RPMI 1640) or with 25 μl of an appropriate dose of test compound before being stimulated by the addition of 25 μl of lipopolysaccharide at a final concentration of 100 ng/ml. After 24 hours, cell-free supernatant fluids were collected by centrifugation and stored at −20° C. until tested for the presence of IL-12. Cytokine Measurements Cytokine protein concentrations were determined by sandwich ELISA as described in Van Wauwe et al. (1996, Inflamm Res, 45,357–363). The quantikine HS kit (R &D HS120, Abingdon, United Kingdom) was used to quantify the cytokine levels (IL12 p70) in the supernatant

| SMILES | inhibition at 0.01 µM [%] |
| --- | --- |
| Cc1nc(-c2ccc(C(F)(F)F)cc2)sc1-c1ccnc(N)n1 [Compound 9] | 92 |
| Cc1nccc(-c2sc(-c3ccc(C(F)(F)F)cc3)nc2C)n1 [Compound 35] | 94 |
| Cc1nc(-c2ccc(C(F)(F)F)cc2)sc1-c1ccnc(N(CCO)CCO)n1 [Compound 70] | 90 |
| Cc1nc(-c2ccc(C(F)(F)F)cc2)sc1-c1ncnc(N)n1 [Compound 81] | 94 |
| Cc1nc(-c2ccc(C(F)(F)F)cc2)sc1-c1ccnc(NCCC(=O)O)n1 [Compound 84] | 95 |
